Source: patent publication US20110082130A1 (LIGAND PHARMACEUTICALS, INC., priority 2006, published 2011)

Target: T1, chimeric human H3 receptor (Homo sapiens, UniProt Q9Y5N1)
T1 construct: made in house; host or cells: Sf9 insect cells (baculovirus); P2 membrane preparation
Test: Chimeric human H3 receptor GTP binding assay (agonist-stimulated GTP-gamma35S binding, Example 7)
Type: biochemical
Details: Table I; P2 membranes of Sf9 cells, 1 μM histamine as agonist, Ki from IC50 by Cheng-Prusoff
Outline: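 Sf9 membranes co-expressing chimeric human H3 receptor and heterotrimeric G-protein, 35 μg/tube, in pH 7.4 Tris buffer with 10 μM GDP. Test compounds (10^−10–10^−6 M) competed against 1 μM histamine, […] GTP-gamma35S, 60 min at room temperature. Filter-bound radioactivity counted; IC50 converted to Ki by Cheng-Prusoff. Agonism/inverse agonism tested without histamine (EC50).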

T1 sequence (Q9Y5N1 with tags, fused parts or gaps): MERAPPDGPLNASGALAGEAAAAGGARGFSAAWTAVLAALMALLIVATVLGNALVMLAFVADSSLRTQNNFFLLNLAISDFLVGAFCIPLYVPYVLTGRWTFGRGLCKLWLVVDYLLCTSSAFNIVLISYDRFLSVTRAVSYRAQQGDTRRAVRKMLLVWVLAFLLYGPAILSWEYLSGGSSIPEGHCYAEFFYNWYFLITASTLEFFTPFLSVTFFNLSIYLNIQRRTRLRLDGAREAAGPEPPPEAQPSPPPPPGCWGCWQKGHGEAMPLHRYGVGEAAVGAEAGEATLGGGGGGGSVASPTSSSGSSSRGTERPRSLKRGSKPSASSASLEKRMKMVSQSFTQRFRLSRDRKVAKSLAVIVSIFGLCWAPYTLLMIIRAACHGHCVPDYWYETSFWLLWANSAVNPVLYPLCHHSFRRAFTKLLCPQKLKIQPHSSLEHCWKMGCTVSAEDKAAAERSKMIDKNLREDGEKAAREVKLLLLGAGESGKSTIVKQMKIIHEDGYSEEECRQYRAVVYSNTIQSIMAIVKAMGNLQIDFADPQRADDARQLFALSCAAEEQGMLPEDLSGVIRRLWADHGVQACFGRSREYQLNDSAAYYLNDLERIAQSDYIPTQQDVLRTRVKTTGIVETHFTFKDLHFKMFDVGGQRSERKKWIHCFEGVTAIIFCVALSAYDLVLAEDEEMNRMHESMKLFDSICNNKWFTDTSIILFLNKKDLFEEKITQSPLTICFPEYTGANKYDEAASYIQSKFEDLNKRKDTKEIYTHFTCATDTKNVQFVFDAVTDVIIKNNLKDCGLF

Ki, < 1000 nM:
CCC1c2ccccc2CCN1CC(=O)N1CCN(C(C)C)CC1 (centres unmarked) [Compound 56, 1-ethyl-2-[2-(4-isopropylpiperazin-1-yl)-2-oxoethyl]-1,2,3,4-tetrahydroisoquinoline]
CC(=O)c1ccc2c(c1)CCN(CC(=O)N1CCN(C3CCC3)CC1)C2 [Compound 61, 1-{2-[2-(4-cyclobutylpiperazin-1-yl)-2-oxoethyl]-1,2,3,4-tetrahydroisoquinolin-6-yl}ethanone]

Same assay, conditions: Table II "Ki", symbol *; assay of Example 7

Ki, < 1000 nM:
CCN(CC)c1ccc(-c2ccc3c(c2)CCN(CC(=O)N2CCN(C4CCC4)CC2)C3)cc1 [Compound 625, 4-{2-[2-(4-cyclobutylpiperazin-1-yl)-2-oxoethyl]-1,2,3,4-tetrahydroisoquinolin-6-yl}-N,N-diethylaniline]
CN(C)c1ccc(-c2ccc3c(c2)CCN(CC(=O)N2CCN(C4CCC4)CC2)C3)cc1 [Compound 532, 4-{2-[2-(4-cyclobutylpiperazin-1-yl)-2-oxoethyl]-1,2,3,4-tetrahydroisoquinolin-6-yl}-N,N-dimethylaniline]

Same assay, conditions: Table II; "*" = Ki in assay of Example 7 less than 1 micromolar

Ki, < 1000 nM:
O=C(CN1CCc2cn(-c3cccnc3)nc2C1)N1CCN(C2CCC2)CC1 [Compound 123, 6-[2-(4-cyclobutylpiperazin-1-yl)-2-oxoethyl]-2-pyridin-3-yl-4,5,6,7-tetrahydro-2H-pyrazolo[3,4-c]pyridine]
CC(=O)c1ccc2c(c1)CCN(CC(=O)N1CCN(C3CCCC3C)CC1)C2 (centres unmarked) [Compound 206, 1-(2-{2-[4-(2-methylcyclopentyl)piperazin-1-yl]-2-oxoethyl}-1,2.3,4-tetrahydroisoquinolin-6-yl)ethanone]
CC(C)Oc1ccc2c(c1)CCN(CC(=O)N1CCN(C3CCC3)CC1)C2 [Compound 197, 2-[2-(4-cyclobutylpiperazin-1-yl)-2-oxoethyl]-6-isopropoxy-1,2,3,4-tetrahydroisoquinoline]
CC1CCC[C@H]2CN(C(=O)CN3CCc4cc(-n5ccc(C(F)(F)F)n5)ccc4C3)CCN12 (stereo in doubt) [Compound 158, 6-methyl-2-({6-[3-(trifluoromethyl)-1H-pyrazol-1-yl]-3,4-dihydroisoquinolin-2(1H)-yl}acetyl)octahydro-2H-pyrido[1,2-a]pyrazine]
O=C(CN1CCc2nccnc2C1)N1CCN(C2CCC2)CC1 [Compound 228, 6-[2-(4-cyclobutylpiperazin-1-yl)-2-oxoethyl]-5,6,7,8-tetrahydropyrido[3,4-b]pyrazine]
O=C(CN1CCc2nc(N3CCCCC3)ncc2C1)N1CCN(C2CCC2)CC1 [Compound 155, 6-[2-(4-cyclobutylpiperazin-1-yl)-2-oxoethyl]-2-piperidin-1-yl-5,6,7,8-tetrahydropyrido[4,3-d]pyrimidine]
O=C(CN1CCc2nc(N3CCOCC3)ncc2C1)N1CCN(C2CCC2)CC1 [Compound 139, 6-[2-(4-cyclobutylpiperazin-1-yl)-2-oxoethyl]-2-morpholin-4-yl-5,6,7,8-tetrahydropyrido[4,3-d]pyrimidine]
O=C(CN1CCc2nc(N3CCCC3)ncc2C1)N1CCN(C2CCC2)CC1 [Compound 204, 6-[2-(4-cyclobutylpiperazin-1-yl)-2-oxoethyl]-2-pyrrolidin-1-yl-5,6,7,8-tetrahydropyrido[4,3-d]pyrimidine]
CCOC(=O)c1ccc2c(c1)CCN(CC(=O)N1CCN(C3CCC3)CC1)C2 [Compound 86, ethyl 2-[2-(4-cyclobutylpiperazin-1-yl)-2-oxoethyl]-1,2,3,4-tetrahydroisoquinoline-6-carboxylate]
Cn1cccc(-c2ccc3c(c2)CCN(CC(=O)N2CCN(C4CCC4)CC2)C3)c1=O [Compound 212, 3-{2-[2-(4-cyclobutylpiperazin-1-yl)-2-oxoethyl]-1,2,3,4-tetrahydroisoquinolin-6-yl}-1-methylpyridin-2(1H)-one]
CC1CN(C(=O)CN2CCc3nc(-c4nccs4)sc3C2)CCN1C1CCC1 (centres unmarked) [Compound 115, 5-[2-(4-cyclobutyl-3-methylpiperazin-1-yl)-2-oxoethyl]-2-(1,3-thiazol-2-yl)-4,5,6,7-tetrahydro[1,3]thiazolo [5,4-c]pyridine]
O=C(CN1CCc2nn(-c3cncnc3)cc2C1)N1CCN(C2CCC2)CC1 [Compound 252, 5-[2-(4-cyclobutylpiperazin-1-yl)-2-oxoethyl]-2-pyrimidin-5-yl-4,5,6,7-tetrahydro-2H-pyrazolo[4,3-c]pyridine]
CC1(C)CN(CC(=O)N2CCN(C3CCC3)CC2)Cc2cnc(N3CCOCC3)nc21 [Compound 239, 6-[2-(4-cyclobutylpiperazin-1-yl)-2-oxoethyl]-8,8-dimethyl-2-morpholin-4-yl-5,6,7,8-tetrahydropyrido[4,3-d]pyrimidine]
CCOC(=O)c1cnc2c(c1)CCN(CC(=O)N1CCN(C3CCC3)C(C)C1)C2 (centres unmarked) [Compound 117, ethyl 7-[2-(4-cyclobutyl-3-methylpiperazin-1-yl)-2-oxoethyl]-5,6,7,8-tetrahydro-1,7-naphthyridine-3-carboxylate]
O=C(CN1CCc2nn(-c3ccc(C4CC4)nn3)cc2C1)N1CCN(C2CCC2)CC1 [Compound 260, 5-[2-(4-cyclobutylpiperazin-1-yl)-2-oxoethyl]-2-(6-cyclopropylpyridazin-3-yl)-4,5,6,7-tetrahydro-2H-pyrazolo[4,3-c]pyridine]
O=C(CN1CCc2nc(N3CCCCC3)ncc2C1)N1CCN(C2CCCC2)CC1 [Compound 156, 6-[2-(4-cyclopentylpiperazin-1-yl)-2-oxoethyl]-2-piperidin-1-yl-5,6,7,8-tetrahydropyrido[4,3-d]pyrimidine]
O=C(CN1CCc2nc(N3CCCCC3)ccc2C1)N1CCN(C2CCC2)CC1 [Compound 222, 6-[2-(4-cyclobutylpiperazin-1-yl)-2-oxoethyl]-2-piperidin-1-yl-5,6,7,8-tetrahydro-1,6-naphthyridine]
CC1CCC[C@H]2CN(C(=O)CN3CCc4nc(N5CCC(F)(F)CC5)ccc4C3)CCN12 (stereo in doubt) [Compound 180, 2-(4,4-difluoropiperidin-1-yl)-6-[2-(6-methyloctahydro-2H-pyrido[1,2-a]pyrazin-2-yl)-2-oxoethyl]-5,6,7,8-tetrahydro-1,6-naphthyridine]

Same assay, conditions: assay of Example 7; "*" in Ki of Table II

Ki, < 1000 nM:
O=C(CN1CCc2nc(-c3ccc(C(F)(F)F)cc3)sc2C1)N1CCN(C2CCC2)CC1 [Compound 369, 5-[2-(4-cyclobutylpiperazin-1-yl)-2-oxoethyl]-2-[4-(trifluoromethyl)phenyl]-4,5,6,7-tetrahydro[1,3]thiazolo [5,4-c]pyridine]
CCOc1ccc(-c2nc3c(s2)CN(CC(=O)N2CCN(C4CCC4)CC2)CC3)cc1 [Compound 330, 5-[2-(4-cyclobutylpiperazin-1-yl)-2-oxoethyl]-2-(4-ethoxyphenyl)-4,5,6,7-tetrahydro[1,3]thiazolo [5,4-c]pyridine]
O=C(CN1CCc2nc(-c3ccc(Oc4ccccc4)cc3)sc2C1)N1CCN(C2CCC2)CC1 [Compound 318, 5-[2-(4-cyclobutylpiperazin-1-yl)-2-oxoethyl]-2-(4-phenoxyphenyl)-4,5,6,7-tetrahydro[1,3]thiazolo [5,4-c]pyridine]
O=C(CN1CCc2nc(-c3ccc(Cl)cc3Cl)sc2C1)N1CCN(C2CCC2)CC1 [Compound 359, 5-[2-(4-cyclobutylpiperazin-1-yl)-2-oxoethyl]-2-(2,4-dichlorophenyl)-4,5,6,7-tetrahydro[1,3]thiazolo [5,4-c]pyridine]
COc1ccccc1-c1nc2c(s1)CN(CC(=O)N1CCN(C3CCC3)CC1)CC2 [Compound 336, 5-[2-(4-cyclobutylpiperazin-1-yl)-2-oxoethyl]-2-(2-methoxyphenyl)-4,5,6,7-tetrahydro[1,3]thiazolo [5,4-c]pyridine]
CCOC(=O)c1ccc(-c2nc3c(s2)CN(CC(=O)N2CCN(C4CCC4)CC2)CC3)cc1 [Compound 375, ethyl 4-{5-[2-(4-cyclobutylpiperazin-1-yl)-2-oxoethyl]-4,5,6,7-tetrahydro[1,3]thiazolo [5,4-c]pyridin-2-yl}benzoate]
CC(C)(C)c1ccc(-c2nc3c(s2)CN(CC(=O)N2CCN(C4CCC4)CC2)CC3)cc1 [Compound 314, 2-(4-tert-butylphenyl)-5-[2-(4-cyclobutylpiperazin-1-yl)-2-oxoethyl]-4,5,6,7-tetrahydro[1,3]thiazolo [5,4-c]pyridine]
CCCCc1ccc(-c2nc3c(s2)CN(CC(=O)N2CCN(C4CCC4)CC2)CC3)cc1 [Compound 309, 2-(4-butylphenyl)-5-[2-(4-cyclobutylpiperazin-1-yl)-2-oxoethyl]-4,5,6,7-tetrahydro[1,3]thiazolo [5,4-c]pyridine]
COc1ccc(OC)c(-c2nc3c(s2)CN(CC(=O)N2CCN(C4CCC4)CC2)CC3)c1 [Compound 339, 5-[2-(4-cyclobutylpiperazin-1-yl)-2-oxoethyl]-2-(2,5-dimethoxyphenyl)-4,5,6,7-tetrahydro[1,3]thiazolo [5,4-c]pyridine]
O=C(CN1CCc2nc(-c3ccc(Cl)cc3F)sc2C1)N1CCN(C2CCC2)CC1 [Compound 351, 2-(4-chloro-2-fluorophenyl)-5-[2-(4-cyclobutylpiperazin-1-yl)-2-oxoethyl]-4,5,6,7-tetrahydro[1,3]thiazolo [5,4-c]pyridine]
